Source: patent US6914045B2, “Glycopeptide antibiotics” (Wyeth Holdings Corporation, priority 2001, dated 2005)
Values after ≈ are worked out from the molar mass of the structure shown.

Key:
Assay in all cases: in vitro antibacterial evaluation, MIC by broth dilution
Format in all cases: cell-based
Enterococcus sp. = conditions: broth dilution, 18 hours at 35° C.
Protocol: (§1) Methods for in vitro Antibacterial Evaluation (Table 1)
(§2) The minimum inhibitory concentration (MIC), the lowest concentration of the antibiotic which inhibits growth of the test organism, is determined by the broth dilution method using Muller-Hinton II […] (Baltimore Biological Laboratories) following the recommendations of the National Committee for Clinical Laboratory Standards [Methods for dilution antimicrobial susceptibility tests for bacteria that grow aerobically, approved standard M7-A2, National Committee for Clinical Laboratory Standards, Villanova, Pa.].
(§3) An inoculum level of 5×10^5 CFU/mL, and a range of antibiotic concentrations (64-0.06 μg/mL) is used. […] The test organisms include a spectrum of Gram-positive bacteria comprised of Staphylococcus sp., Streptococcus sp. and Enterococcus sp. These organisms include recent clinical isolates that are resistant to methicillin, penicillin and/or vancomycin.

Staphylococcus sp. = conditions: broth dilution, 18 hours at 35° C.; for MIC Staphylococcus aureus (ATCC 29213): strain ATCC 29213; for MIC Staphylococcus aureus (GC 1131): strain GC 1131; for MIC Staphylococcus aureus (GC 3051): strain GC 3051; for MIC Staphylococcus aureus (GC 3053): strain GC 3053; for MIC Staphylococcus aureus (GC 4541): strain GC 4541; for MIC Staphylococcus aureus (GC 4542): strain GC 4542; for MIC Staphylococcus aureus-SMITH (GC 4543): strain GC 4543; for MIC Staphylococcus aureus (GC 4544): strain GC 4544; for MIC Staphylococcus aureus (GC 4545): strain GC 4545; for MIC Staphylococcus haemolyticus (GC 4546): strain GC 4546; for MIC Coagulase Negative Staphylococcus (GC 4547): strain GC 4547; for MIC Coagulase Negative Staphylococcus (GC 4548): strain GC 4548; for MIC Coagulase Negative Staphylococcus (GC 4549): strain GC 4549; for MIC Coagulase Negative Staphylococcus (GC 4551): strain GC 4551; for MIC Coagulase Negative Staphylococcus (GC 6257): strain GC 6257
Protocol: as §1, §2, §3

Streptococcus sp. = conditions: broth dilution, 18 hours at 35° C.
Protocol: as §1, §2, §3

Escherichia coli = conditions: 18 hours at 35° C.

## CC(c1ccccc1)C1NC(=O)CNC(=O)C(CO)NC(=O)C(C(O)C2CNC(=N)N2C2OC(CO)C(O)C(O)C2O)NC(=O)C(C(O)C2CNC(=N)N2)NC(=O)C(Cc2ccc(OC3OC(CO)C(OC4OC5COC6(OC5C(O)C4O)C4CCCC6CCC4)C(O)C3O)cc2)NC1=O (stereo not drawn) [Example 212]
Enterococcus sp.
  MIC Enterococcus avium (GC 4558): 4 µg/mL (≈ 2.83 µM)
  MIC Enterococcus faecalis (ATCC 29212): 8 µg/mL (≈ 5.65 µM)
  MIC Enterococcus faecalis (GC 2242): 8 µg/mL (≈ 5.65 µM)
  MIC Enterococcus faecalis (GC 2691): 8 µg/mL (≈ 5.65 µM)
  MIC Enterococcus faecalis (GC 3059): 8 µg/mL (≈ 5.65 µM)
  MIC Enterococcus faecalis (GC 4552): 8 µg/mL (≈ 5.65 µM)
  MIC Enterococcus faecalis (GC 4553): 8 µg/mL (≈ 5.65 µM)
  MIC Enterococcus faecalis (GC 4554): 8 µg/mL (≈ 5.65 µM)
  MIC Enterococcus faecalis (GC 6189): 8 µg/mL (≈ 5.65 µM)
  MIC Enterococcus faecium (GC 2243): 8 µg/mL (≈ 5.65 µM)
  MIC Enterococcus faecium (GC 4556): 8 µg/mL (≈ 5.65 µM)
  MIC Enterococcus faecium (GC 4557): 4 µg/mL (≈ 2.83 µM)
Enterococcus sp.; inoculum 5×10^5 CFU/mL, strain ATCC 29212
  MIC Enterococcus faecalis (ATCC 29212): 8 µg/mL (≈ 5.65 µM)
Enterococcus sp.; inoculum 5×10^5 CFU/mL, strain GC 2242
  MIC Enterococcus faecalis (GC 2242): 8 µg/mL (≈ 5.65 µM)
Enterococcus sp.; inoculum 5×10^5 CFU/mL, strain GC 2243
  MIC Enterococcus faecium (GC 2243): 8 µg/mL (≈ 5.65 µM)
Enterococcus sp.; inoculum 5×10^5 CFU/mL, strain GC 2691
  MIC Enterococcus faecalis (GC 2691): 8 µg/mL (≈ 5.65 µM)
Enterococcus sp.; inoculum 5×10^5 CFU/mL, strain GC 3059
  MIC Enterococcus faecalis (GC 3059): 8 µg/mL (≈ 5.65 µM)
Enterococcus sp.; inoculum 5×10^5 CFU/mL, strain GC 4552
  MIC Enterococcus faecalis (GC 4552): 8 µg/mL (≈ 5.65 µM)
Enterococcus sp.; inoculum 5×10^5 CFU/mL, strain GC 4553
  MIC Enterococcus faecalis (GC 4553): 8 µg/mL (≈ 5.65 µM)
Enterococcus sp.; inoculum 5×10^5 CFU/mL, strain GC 4554
  MIC Enterococcus faecalis (GC 4554): 8 µg/mL (≈ 5.65 µM)
Enterococcus sp.; inoculum 5×10^5 CFU/mL, strain GC 4556
  MIC Enterococcus faecium (GC 4556): 8 µg/mL (≈ 5.65 µM)
Enterococcus sp.; inoculum 5×10^5 CFU/mL, strain GC 4557
  MIC Enterococcus faecium (GC 4557): 4 µg/mL (≈ 2.83 µM)
Enterococcus sp.; inoculum 5×10^5 CFU/mL, strain GC 4558
  MIC Enterococcus avium (GC 4558): 4 µg/mL (≈ 2.83 µM)
Enterococcus sp.; inoculum 5×10^5 CFU/mL, strain GC 6189
  MIC Enterococcus faecalis (GC 6189): 8 µg/mL (≈ 5.65 µM)
Staphylococcus sp.
  MIC Staphylococcus aureus (ATCC 29213): 2 µg/mL (≈ 1.41 µM)
  MIC Staphylococcus aureus (GC 1131): 4 µg/mL (≈ 2.83 µM)
  MIC Staphylococcus aureus (GC 3051): 2 µg/mL (≈ 1.41 µM)
  MIC Staphylococcus aureus (GC 3053): 4 µg/mL (≈ 2.83 µM)
  MIC Staphylococcus aureus (GC 4541): 2 µg/mL (≈ 1.41 µM)
  MIC Staphylococcus aureus (GC 4542): 2 µg/mL (≈ 1.41 µM)
  MIC Staphylococcus aureus-SMITH (GC 4543): 2 µg/mL (≈ 1.41 µM)
  MIC Staphylococcus aureus (GC 4544): 4 µg/mL (≈ 2.83 µM)
  MIC Staphylococcus aureus (GC 4545): 2 µg/mL (≈ 1.41 µM)
  MIC Staphylococcus haemolyticus (GC 4546): 2 µg/mL (≈ 1.41 µM)
  MIC Coagulase Negative Staphylococcus (GC 4547): 2 µg/mL (≈ 1.41 µM)
  MIC Coagulase Negative Staphylococcus (GC 4548): 2 µg/mL (≈ 1.41 µM)
  MIC Coagulase Negative Staphylococcus (GC 4549): 2 µg/mL (≈ 1.41 µM)
  MIC Coagulase Negative Staphylococcus (GC 4551): 2 µg/mL (≈ 1.41 µM)
  MIC Coagulase Negative Staphylococcus (GC 6257): 1 µg/mL (≈ 0.706 µM)
Streptococcus sp.
  MIC Streptococcus agalactiae (GC 4564): 1 µg/mL (≈ 0.706 µM)
  MIC Streptococcus pneumoniae (ATCC 6301): 0.5 µg/mL (≈ 0.353 µM)
  MIC Streptococcus pneumoniae (GC 1894): <0.06 µg/mL
  MIC Streptococcus pneumoniae (GC 4565): 0.25 µg/mL (≈ 0.177 µM)
  MIC Streptococcus pyogenes (GC 4563): 1 µg/mL (≈ 0.706 µM)
Streptococcus sp.; inoculum 5×10^5 CFU/mL, strain ATCC 6301
  MIC Streptococcus pneumoniae (ATCC 6301): 0.5 µg/mL (≈ 0.353 µM)
Streptococcus sp.; inoculum 5×10^5 CFU/mL, strain GC 1894
  MIC Streptococcus pneumoniae (GC 1894): <0.06 µg/mL
Streptococcus sp.; inoculum 5×10^5 CFU/mL, strain GC 4563
  MIC Streptococcus pyogenes (GC 4563): 1 µg/mL (≈ 0.706 µM)
Streptococcus sp.; inoculum 5×10^5 CFU/mL, strain GC 4564
  MIC Streptococcus agalactiae (GC 4564): 1 µg/mL (≈ 0.706 µM)
Streptococcus sp.; inoculum 5×10^5 CFU/mL, strain GC 4565
  MIC Streptococcus pneumoniae (GC 4565): 0.25 µg/mL (≈ 0.177 µM)
Escherichia coli
  MIC Escherichia coli (ATCC 25922): 32 µg/mL (≈ 22.6 µM)
  MIC Escherichia coli (GC 4559): 32 µg/mL (≈ 22.6 µM)
  MIC Escherichia coli (GC 4560): 2 µg/mL (≈ 1.41 µM)

## CC(c1ccccc1)C1NC(=O)CNC(=O)C(CO)NC(=O)C(C(O)C2CNC(=N)N2C2OC(CO)C(O)C(O)C2O)NC(=O)C(C(O)C2CNC(=N)N2)NC(=O)C(Cc2ccc(O)c(NC(=O)c3ccccc3)c2)NC1=O (stereo not drawn) [Example 17, Cyclo[glycyl-β-methylphenylalanyl-3-(benzamido)tyrosyl-3-(2-iminoimidazolidin-4-yl)seryl-3-(3-hexopyranosyl-2-iminoimidazolidin-4-yl)serylseryl]]
Enterococcus sp.; strain ATCC 29212
  MIC Enterococcus faecalis (ATCC 29212): >64 µg/mL
Enterococcus sp.; strain GC 2242
  MIC Enterococcus faecalis (GC 2242): >64 µg/mL
Enterococcus sp.; strain GC 2243
  MIC Enterococcus faecium (GC 2243): >64 µg/mL
Enterococcus sp.; strain GC 2691
  MIC Enterococcus faecalis (GC 2691): >64 µg/mL
Enterococcus sp.; strain GC 3059
  MIC Enterococcus faecalis (GC 3059): >64 µg/mL
Enterococcus sp.; strain GC 4552
  MIC Enterococcus faecalis (GC 4552): >64 µg/mL
Enterococcus sp.; strain GC 4553
  MIC Enterococcus faecalis (GC 4553): >64 µg/mL
Enterococcus sp.; strain GC 4554
  MIC Enterococcus faecalis (GC 4554): >64 µg/mL
Enterococcus sp.; strain GC 4556
  MIC Enterococcus faecium (GC 4556): 64 µg/mL (≈ 58.7 µM)
Enterococcus sp.; strain GC 4557
  MIC Enterococcus faecium (GC 4557): 64 µg/mL (≈ 58.7 µM)
Enterococcus sp.; strain GC 4558
  MIC Enterococcus avium (GC 4558): 64 µg/mL (≈ 58.7 µM)
Enterococcus sp.; strain GC 6189
  MIC Enterococcus faecalis (GC 6189): >64 µg/mL
Staphylococcus sp.
  MIC Staphylococcus aureus (ATCC 29213): >64 µg/mL
  MIC Staphylococcus aureus (GC 1131): >64 µg/mL
  MIC Staphylococcus aureus (GC 3051): >64 µg/mL
  MIC Staphylococcus aureus (GC 3053): >64 µg/mL
  MIC Staphylococcus aureus (GC 4541): >64 µg/mL
  MIC Staphylococcus aureus (GC 4542): >64 µg/mL
  MIC Staphylococcus aureus-SMITH (GC 4543): >64 µg/mL
  MIC Staphylococcus aureus (GC 4544): >64 µg/mL
  MIC Staphylococcus aureus (GC 4545): >64 µg/mL
  MIC Staphylococcus haemolyticus (GC 4546): >64 µg/mL
  MIC Coagulase Negative Staphylococcus (GC 4547): 64 µg/mL (≈ 58.7 µM)
  MIC Coagulase Negative Staphylococcus (GC 4548): >64 µg/mL
  MIC Coagulase Negative Staphylococcus (GC 4549): 32 µg/mL (≈ 29.4 µM)
  MIC Coagulase Negative Staphylococcus (GC 4551): >64 µg/mL
  MIC Coagulase Negative Staphylococcus (GC 6257): 64 µg/mL (≈ 58.7 µM)
Streptococcus sp.; strain ATCC 6301
  MIC Streptococcus pneumoniae (ATCC 6301): >64 µg/mL
Streptococcus sp.; strain GC 1894
  MIC Streptococcus pneumoniae (GC 1894): 64 µg/mL (≈ 58.7 µM)
Streptococcus sp.; strain GC 4563
  MIC Streptococcus pyogenes (GC 4563): >64 µg/mL
Streptococcus sp.; strain GC 4564
  MIC Streptococcus agalactiae (GC 4564): >64 µg/mL
Streptococcus sp.; strain GC 4565
  MIC Streptococcus pneumoniae (GC 4565): >64 µg/mL
Escherichia coli; strain ATCC 25922, broth dilution
  MIC Escherichia coli (ATCC 25922): 64 µg/mL (≈ 58.7 µM)
Escherichia coli; strain GC 4559, broth dilution
  MIC Escherichia coli (GC 4559): 32 µg/mL (≈ 29.4 µM)
Escherichia coli; strain GC 4560, broth dilution
  MIC Escherichia coli (GC 4560): 16 µg/mL (≈ 14.7 µM)
